{"source": "paper PMC2248166", "about": "“Quantitative peptide binding motifs for 19 human and mouse MHC class I molecules derived using positional scanning combinatorial peptide libraries” (Immunome Research, 2008)", "target": "HLA A*3001 (Homo sapiens, UniProt P04439, D140H/D185E/E176W/F33S/G80R/H175R/K168Q/R138E/R41S)", "sequence (P04439 25-365 limits assumed, stated change not applied)": "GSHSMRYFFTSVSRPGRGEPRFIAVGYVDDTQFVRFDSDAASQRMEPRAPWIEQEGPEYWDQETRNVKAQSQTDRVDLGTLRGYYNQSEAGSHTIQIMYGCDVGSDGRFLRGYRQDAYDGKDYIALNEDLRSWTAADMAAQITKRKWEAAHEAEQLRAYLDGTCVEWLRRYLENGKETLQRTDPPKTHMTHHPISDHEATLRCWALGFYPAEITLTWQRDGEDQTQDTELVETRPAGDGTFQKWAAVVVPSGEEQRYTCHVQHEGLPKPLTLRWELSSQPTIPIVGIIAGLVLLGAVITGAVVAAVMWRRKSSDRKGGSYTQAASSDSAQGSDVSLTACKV", "assay": "biochemical", "assay_type": "binding", "note": "pIC50: −log10 of the molar value. Where a SMILES comes first, the peptide text is derived from it."}
{"compound": "CSCC[C@H](NC(=O)[C@H](CCC(=O)O)NC(=O)[C@H](CO)NC(=O)[C@H](CC(C)C)NC(=O)[C@H](CCCNC(=N)N)NC(=O)[C@@H](NC(=O)[C@@H](N)CCCCN)[C@@H](C)O)C(=O)N[C@@H](CC(C)C)C(=O)N[C@@H](CO)C(=O)O", "note": "[3102.0174] (H-KTRLSEMLS-OH)", "values": [{"measurement": "pIC50", "value": 9.35}]}
{"compound": "CC(C)[C@H](NC(=O)[C@H](CO)NC(=O)[C@H](CCCNC(=N)N)NC(=O)[C@H](Cc1ccccc1)NC(=O)[C@H](CCCNC(=N)N)NC(=O)[C@H](Cc1ccccc1)NC(=O)[C@@H](N)CCCNC(=N)N)C(=O)N[C@@H](Cc1ccc(O)cc1)C(=O)NCC(=O)O", "note": "[3102.0175] (H-RFRFRSVYG-OH)", "values": [{"measurement": "pIC50", "value": 9.44}]}
{"compound": "C[C@H](NC(=O)[C@H](C)NC(=O)[C@H](CCCCN)NC(=O)CNC(=O)[C@@H](N)CCCCN)C(=O)N[C@@H](C)C(=O)N[C@@H](Cc1ccccc1)C(=O)N[C@@H](C)C(=O)N[C@@H](CCCCN)C(=O)O", "note": "[3102.0176] (H-KGKAAAFAK-OH)", "values": [{"measurement": "pIC50", "value": 8.51}]}
{"compound": "CC(C)C[C@H](NC(=O)[C@H](C)NC(=O)[C@@H](N)CO)C(=O)N[C@@H](Cc1ccc(O)cc1)C(=O)N[C@@H](CO)C(=O)N[C@@H](Cc1ccc(O)cc1)C(=O)N[C@@H](C)C(=O)N[C@@H](CO)C(=O)N[C@@H](C)C(=O)O", "note": "[3102.0177] (H-SALYSYASA-OH)", "values": [{"measurement": "pIC50", "value": 7.43}]}
{"compound": "CC(C)C[C@H](NC(=O)[C@H](CO)NC(=O)[C@H](CC(C)C)NC(=O)[C@H](CS)NC(=O)[C@H](CCCNC(=N)N)NC(=O)[C@H](CO)NC(=O)[C@@H](N)CS)C(=O)N[C@@H](Cc1ccccc1)C(=O)N[C@@H](Cc1ccc(O)cc1)C(=O)O", "note": "[3102.0178] (H-CSRCLSLFY-OH)", "values": [{"measurement": "pIC50", "value": 7.66}]}
{"compound": "CC(C)C[C@H](NC(=O)[C@H](C)NC(=O)[C@H](Cc1ccc(O)cc1)NC(=O)[C@H](CCCNC(=N)N)NC(=O)[C@@H](NC(=O)[C@@H](N)CC(C)C)[C@@H](C)O)C(=O)N[C@@H](Cc1c[nH]cn1)C(=O)NCC(=O)N[C@@H](CCCCN)C(=O)O", "note": "[3102.0179] (H-LTRYALHGK-OH)", "values": [{"measurement": "pIC50", "value": 9.60}]}
{"compound": "CC[C@H](C)[C@H](NC(=O)[C@@H](NC(=O)[C@H](CO)NC(=O)[C@H](CCCNC(=N)N)NC(=O)[C@H](CC(C)C)NC(=O)[C@H](CO)NC(=O)[C@@H](N)CCSC)[C@@H](C)O)C(=O)N[C@H](C(=O)N[C@@H](CCCCN)C(=O)O)[C@@H](C)CC", "note": "[3102.0180] (H-MSLRSTIIK-OH)", "values": [{"measurement": "pIC50", "value": 7.43}]}
{"compound": "CC(C)C[C@H](NC(=O)[C@H](CC(C)C)NC(=O)[C@H](Cc1ccc(O)cc1)NC(=O)[C@@H](NC(=O)[C@H](C)NC(=O)[C@H](CCCCN)NC(=O)[C@@H](NC(=O)[C@@H](N)C(C)C)C(C)C)[C@@H](C)O)C(=O)N[C@@H](CCCCN)C(=O)O", "note": "[3102.0181] (H-VVKATYLLK-OH)", "values": [{"measurement": "pIC50", "value": 9.49}]}
{"compound": "CC(C)C[C@H](NC(=O)[C@H](CCC(N)=O)NC(=O)[C@H](Cc1c[nH]cn1)NC(=O)[C@H](CCCCN)NC(=O)[C@H](CO)NC(=O)[C@H](CO)NC(=O)[C@@H](NC(=O)[C@@H](N)CCCCN)C(C)C)C(=O)N[C@H](C(=O)O)C(C)C", "note": "[3102.0182] (H-KVSSKHQLV-OH)", "values": [{"measurement": "pIC50", "value": 7.85}]}
{"compound": "CC(C)C[C@H](N)C(=O)N[C@H](C(=O)N[C@@H](CCCCN)C(=O)N[C@@H](CO)C(=O)N[C@@H](CO)C(=O)N[C@@H](Cc1ccccc1)C(=O)N[C@H](C(=O)N[C@@H](CCCCN)C(=O)N[C@@H](CCCCN)C(=O)O)C(C)C)C(C)C", "note": "[3102.0185] (H-LVKSSFVKK-OH)", "values": [{"measurement": "pIC50", "value": 8.25}]}
{"compound": "CC[C@H](C)[C@H](NC(=O)[C@@H]1CCCN1C(=O)[C@H](C)NC(=O)[C@H](CO)NC(=O)[C@H](C)NC(=O)[C@@H]1CCCN1C(=O)[C@H](CCCCN)NC(=O)[C@@H](NC(=O)[C@@H](N)CCCNC(=N)N)[C@@H](C)O)C(=O)O", "note": "[3102.0187] (H-RTKPASAPI-OH)", "values": [{"measurement": "pIC50", "value": 9.96}]}
{"compound": "CC[C@H](C)[C@H](NC(=O)[C@H](Cc1ccccc1)NC(=O)[C@H](CC(C)C)NC(=O)[C@H](CC(=O)O)NC(=O)[C@H](CCCNC(=N)N)NC(=O)[C@@H](NC(=O)[C@@H](N)CCCNC(=N)N)[C@@H](C)O)C(=O)N[C@@H](C)C(=O)N[C@@H](CC(C)C)C(=O)O", "note": "[3102.0188] (H-RTRDLFIAL-OH)", "values": [{"measurement": "pIC50", "value": 9.96}]}
